Reference: article PMC11017246, “Discovery of GLPG2737, a Potent Type 2 Corrector of CFTR for the Treatment of Cystic Fibrosis in Combination with a Potentiator and a Type 1 Co-corrector” (Journal of Medicinal Chemistry, 2024)
Where two headings read alike, the source gives them in different places. Values belong to the compound of their own block, whether it stands above or below them.

What was measured:
[1] = Plasma protein binding, dog; format: in vitro ADME; conditions: for fraction unbound at 4 h, 5 μM: dog, pH 7.4, dog plasma, read-out: PPB % dog (converted)
Description: Plasma protein binding was determined by equilibrium dialysis using the Pierce Red Device plate with inserts (ThermoScientific). Test compound at 5 μM (0.5% DMSO) spiked in freshly thawed human, rat, mouse, or dog plasma (Bioreclamation INC, Westbury, NY, USA) was dialyzed against phosphate-buffered saline (PBS, pH 7.4) at 37 °C under shaking for 4 h. Aliquots were taken from each side of the well, and matrix matched. Proteins were precipitated with an excess of acetonitrile, samples were mixed and centrifuged, and the supernatant was analyzed by liquid chromatography–mass spectrometry/mass spectrometry (LC–MS/MS). Addition of compound peak areas in the buffer chamber and the plasma chamber was considered to be 100% compound.

CYP3A4 = CYP3A4 induction (mRNA) in human hepatocytes; format: in vitro ADME; conditions: for CYP (3A4) mRNA induction, result in words: compared with positive control rifampicin
Description: Cryopreserved human hepatocytes from a single donor were seeded at 0.1 × 10^6 cells/well. The next day, cells were dosed with test compound in assay medium (final test compound concentration 10 μM; final DMSO concentration 0.1%). Positive control inducer, rifampicin, for CYP3A4, was incubated alongside the test compound. Negative control wells were included where the test compound is replaced by vehicle solvent (0.1% DMSO in assay medium). Each test or control compound was dosed in triplicate at a single concentration (10 μM). The cells were exposed to the solutions for 72 h with fresh solution added every 24 h. For mRNA assessment, all media was removed from each of the wells, and the cells were washed once. The cells were lysed, and total RNA was then isolated from the hepatocyte lysates. Reverse transcription was performed, and quantitative PCR analysis was performed on the resulting cDNA, using gene-specific primer probe sets for CYP3A4 target cDNA and endogenous control. Samples were analyzed using an ABI 7900 HT real time PCR system. For mRNA assessment, relative fold mRNA expression was determined based on the threshold cycle (CT) data of target gene relative to endogenous control for each reaction and normalized to negative control using the 2-ΔΔCT method. Data were expressed as fold activation relative to the vehicle control and, as a percent, to the 10 μM rifampicin using the following formula: % of positive control = ((fold increase of the cpd relative to vehicle control – 1)/(fold increase of the rifampicin at 10 μM – 1)) × 100.

[2] = Hepatocyte stability, dog; format: in vitro ADME; conditions: for CLint scaled at 1 μM: read-out: Hep CLint,u dog (converted)
Description: (§1) The hepatocyte stability assay was performed by incubation of test compound at 1 μM, 0.03% DMSO in modified Krebs–Henseleit buffer with suspension of pooled cryopreserved hepatocytes (BioIVT, Hicksville, NY, USA) from mouse, rat, dog, or human (BioIVT, Hicksville, NY, USA) at 0.5 million viable hepatocytes/mL. Before adding the hepatocytes (time zero) and after 10, 20, 45, 90, 120, and 180 min of incubation (n = 2) at 37 °C while gently shaking, the reaction was stopped and proteins were precipitated with an excess of acetonitrile containing an internal standard. The samples were mixed, centrifuged, and filtered, and the supernatant was analyzed by liquid chromatography–mass spectrometry/mass spectrometry (LC–MS/MS). The instrument responses (peak areas/IS peak areas) were referenced to the zero-time point samples (considered as 100%) in order to determine the percentage of compound remaining.

hERG = hERG (Homo sapiens, UniProt Q12809); test: hERG manual patch clamp test; format: cell-based
hERG, sequence (Q12809 whole entry): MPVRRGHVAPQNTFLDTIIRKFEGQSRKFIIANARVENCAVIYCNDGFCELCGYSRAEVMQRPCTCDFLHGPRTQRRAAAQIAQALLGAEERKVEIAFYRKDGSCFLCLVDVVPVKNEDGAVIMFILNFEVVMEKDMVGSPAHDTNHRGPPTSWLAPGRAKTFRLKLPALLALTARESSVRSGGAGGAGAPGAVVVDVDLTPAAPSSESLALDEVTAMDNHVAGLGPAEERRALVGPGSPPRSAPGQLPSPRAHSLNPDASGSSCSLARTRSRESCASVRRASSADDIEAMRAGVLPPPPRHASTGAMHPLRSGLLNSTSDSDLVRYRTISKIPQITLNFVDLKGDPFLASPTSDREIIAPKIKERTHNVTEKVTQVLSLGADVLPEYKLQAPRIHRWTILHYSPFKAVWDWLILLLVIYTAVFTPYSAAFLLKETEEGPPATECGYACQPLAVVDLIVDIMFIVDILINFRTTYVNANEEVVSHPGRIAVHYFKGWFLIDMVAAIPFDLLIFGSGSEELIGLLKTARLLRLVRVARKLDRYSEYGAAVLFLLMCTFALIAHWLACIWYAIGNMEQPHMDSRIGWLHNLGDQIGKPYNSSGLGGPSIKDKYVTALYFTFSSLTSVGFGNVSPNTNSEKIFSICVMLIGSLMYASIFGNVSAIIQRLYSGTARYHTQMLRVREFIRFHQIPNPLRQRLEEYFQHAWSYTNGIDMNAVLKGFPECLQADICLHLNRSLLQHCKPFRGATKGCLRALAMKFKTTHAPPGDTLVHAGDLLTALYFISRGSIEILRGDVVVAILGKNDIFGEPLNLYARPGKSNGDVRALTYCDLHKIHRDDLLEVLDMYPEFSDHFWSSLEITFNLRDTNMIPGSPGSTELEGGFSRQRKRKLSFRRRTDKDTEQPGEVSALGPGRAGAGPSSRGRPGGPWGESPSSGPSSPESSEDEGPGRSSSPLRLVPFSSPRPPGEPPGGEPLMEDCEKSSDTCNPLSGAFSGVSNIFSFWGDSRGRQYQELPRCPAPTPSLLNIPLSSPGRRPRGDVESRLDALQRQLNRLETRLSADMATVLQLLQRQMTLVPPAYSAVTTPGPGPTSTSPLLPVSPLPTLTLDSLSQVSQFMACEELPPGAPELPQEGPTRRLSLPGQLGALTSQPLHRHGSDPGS

CYP2D6 = target: T1, CYP2D6 (Homo sapiens, UniProt P10635); test: CYP reversible inhibition in HLM, CYP2D6; format: in vitro ADME; conditions: probe dextromethorphan
T1 construct: tissue BD Gentest; host or cells: human liver microsomes
T1 sequence (P10635 whole entry): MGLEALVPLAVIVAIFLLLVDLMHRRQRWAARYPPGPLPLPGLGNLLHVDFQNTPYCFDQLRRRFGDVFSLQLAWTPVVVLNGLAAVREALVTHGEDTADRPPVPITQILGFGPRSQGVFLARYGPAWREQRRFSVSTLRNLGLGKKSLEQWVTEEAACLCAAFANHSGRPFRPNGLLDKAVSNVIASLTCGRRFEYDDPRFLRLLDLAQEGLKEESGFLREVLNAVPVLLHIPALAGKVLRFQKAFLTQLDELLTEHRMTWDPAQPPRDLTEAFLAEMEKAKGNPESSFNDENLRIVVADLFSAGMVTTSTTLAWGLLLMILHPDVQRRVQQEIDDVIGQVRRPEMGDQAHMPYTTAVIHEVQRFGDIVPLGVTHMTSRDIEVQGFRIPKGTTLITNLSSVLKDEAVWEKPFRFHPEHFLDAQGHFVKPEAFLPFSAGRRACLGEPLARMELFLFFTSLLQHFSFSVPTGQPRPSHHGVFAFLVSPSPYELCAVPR
Description: Test compounds were diluted in methanol and then added to mixture containing 50 mM potassium phosphate buffer, pH 7.4, human liver microsomes (BD Gentest) and probe substrate. After prewarming for 5 min at 37 °C, the reaction was started by adding cofactor mix (7.65 mg/mL glucose-6-phosphate, 1.7 mg/mL NADP, 6 U/mL of glucose-6-phosphate dehydrogenase), resulting in seven final concentrations of test compounds in the range 0.14–100 μM (2% methanol). Isoform specific conditions regarding probe substrate and microsomal protein concentrations are available in Table 2. Final concentrations of cofactor mix components were as follows: 1.56 mg/mL glucose-6-phosphate, 0.34 mg/mL NADP, and 1.2 U/mL glucose-6-phosphate dehydrogenase. After incubation at 37 °C, the reaction was terminated with acetonitrile:methanol (2:1) solution with internal standard. Samples were centrifuged, and the supernatant fractions were analyzed by LC-MS/MS. The instrument responses (test compounds and internal standard peak areas) were referenced to those for solvent controls (assumed as 100%) in order to determine the percentage reduction in probe metabolism. Percent of control activity vs concentration plots were generated and fitted using GraphPad Prism software to generate IC50.

[3] = Hepatocyte stability, monkey; format: in vitro ADME; conditions: monkey hepatocytes
Description: as §1

PK mouse = format: in vivo
[4] = Intestinal permeability on Caco-2 cells; format: in vitro ADME, human; conditions: human, Caco-2, pH 7.4; A to B, n = 1; read-out: Caco-2 PA2B
Description: (§2) Caco-2 cells were obtained from the European Collection of Cell Cultures (ECACC) and used after a 21-day cell culture in 24-well Transwell plates. Test compounds and the references (vinblastine and propranolol) were prepared in protein-free Hanks’ balanced salt solution containing 25 mM HEPES (pH 7.4) at a concentration of 10 μM and added to either the apical or basolateral chambers of a Transwell plate assembly. Before the experiment, the integrity of the monolayer was checked by measuring the transepithelial resistance. Lucifer yellow (LY) was added to the donor buffer in all wells to assess the integrity of the cell layers by monitoring LY permeation. As LY cannot freely permeate lipophilic barriers, a high degree of LY transport indicates poor integrity of the cell layer. […] Concentrations of the compound in the samples were measured by LC–MS/MS. Apparent permeability (Papp) coefficients were calculated from the relationship: Papp = dQ/dt × 1/A × C0, where Papp is the apparent permeability coefficient (cm s^–1), dQ/dt is the amount of drug permeated per unit of time, A is the effective surface area of the artificial membrane exposed to the medium, and C0 is the initial drug concentration in the donor compartment. The efflux ratios, as an indication of active efflux from the apical cell surface, were calculated using the ratio of Papp(B → A)/Papp(A → B).

Caco-2 cells = test: Intestinal permeability on Caco-2 cells; format: in vitro ADME, human; conditions: A to B, n = 1
Description: as §2

PPB % dog ([1]; dog plasma): 98,7%
fraction unbound at 4 h, 5 μM ([1]; plasma): 0.01
CYP induction @10 μM (mRNA) % rifampicin (CYP3A4; data generated by AbbVie team): 45%
CYP induction @10 μM (mRNA) % rifampicin (CYP3A4; data generated by Galapagos): 24%
CYP (3A4) mRNA induction, result in words (CYP3A4): demonstrated CYP mRNA induction
CLint scaled at 1 μM ([2]; pooled cryopreserved hepatocytes in suspension, dog hepatocytes): 31.7 mL/min/kg
SMILES: CN(C)S(=O)(=O)NC(=O)c1cc(N2CCC(N3CCOCC3)CC2)c2c(C3CCC3)nn(-c3ccc(F)cc3)c2n1 [Compound 51]

IC50 (CYP2D6): > 100 µM
Hepatocyte stability: %LBF monkey [3]: 65 %LBF
Hepatocyte stability: predicted hepCl monkey ([3]; 1 µM): 28.8 mL/min/kg
F (%) mouse (PK mouse; 5 mg/kg po): 71.3%
Vd (PK mouse; plasma, 1 mg/kg iv, read-out: Vss mouse): 1.27 L/kg
half-life (PK mouse; plasma, 1 mg/kg iv, read-out: t1/2 iv mouse (converted)): 3.22 h
clearance (PK mouse; plasma, iv, 1 mg/kg, 1 mg/kg iv, read-out: Clp mouse (converted)): 4.67 mL/min/kg
Unbound clearance (PK mouse; plasma, iv, 1 mg/kg, 1 mg/kg iv, unbound clearance, read-out: Cl.u mouse (converted)): 1110 mL/min/kg
fraction unbound at 4 h, 5 μM ([1]; dog plasma): 0.025
CYP induction @10 μM (mRNA) % rifampicin (CYP3A4; data generated by AbbVie team): 4%
CYP induction @10 μM (mRNA) % rifampicin (CYP3A4; data generated by Galapagos): 6%
Hepatocyte stability: %LBF dog ([2]; dog hepatocytes): 14 %LBF
Hepatocyte stability: predicted hepCl dog ([2]; dog hepatocytes, 1 µM): < 5.83 mL/min/kg
CLint scaled at 1 μM ([2]; dog, pooled cryopreserved dog hepatocytes in suspension): < 24.8 mL/min/kg
Papp A→B at 1 h, 10 μM [4]: 24.5 ×10⁻⁶ cm/s
Caco-2 PA2B (Caco-2 cells): 24.5 cm × 10^–6 s^–1
SMILES: COC1CCN(C2CCN(c3cc(C(=O)NS(=O)(=O)N(C)C)nc4c3c(C3CCC3)nn4-c3ccc(F)cc3)CC2)CC1 [Compound 52, 3-Cyclobutyl-N-(N,N-dimethylsulfamoyl)-1-(4-fluorophenyl)-4-(4-methoxy-[1,4′-bipiperidin]-1′-yl)-1H-pyrazolo[3,4-b]pyridine-6-carboxamide]
hERG inhibition (hERG): No significant inhibition
CYP (3A4) mRNA induction, result in words (CYP3A4): devoid of any CYP mRNA induction liability
